Experiment [1] can be described thus: Radial forearm free-flap, trophic effect. The format is in vivo.
Experiment [2] concerns collagen I and III synthesis. Briefly: [3H]-Proline incorporation as measure of collagen deposition. The format is cell-based, human. The conditions noted are these: in vitro. From the text: This human skin substrate consists of neonatal foreskin fibroblasts that secrete a functionally active extracellular matrix grown on a medical-grade nylon mesh cocultured with human neonatal foreskin keratinocytes that differentiate into a multilayered epidermis.
Quantifying proline incorporation can be used to measure potential collagen deposition stimulated by a test substance. This concept is the foundation for the following experiments.

The test system of a further experiment is photodamaged human skin. Briefly: Pilot open label study on photoaged skin: epidermal thickness by high frequency ultrasound. The format is in vivo. The conditions noted are these: for % change (epidermal thickness, ultrasound): range over panelists. The procedure: A pilot open label study was conducted to establish the efficacy of GC-100 on photoaged skin in a clinical setting.
Primary endpoints for this study were as follows: • 1. Epidermal skin thickness was measured using high frequency ultrasound. • 2. Panelists regard for their overall appearance and any changes noted in the appearance of their wrinkles, lentigines, facial acne and pore size were used in qualitative analysis. In addition, panelists were asked to comment on irritation, novel rashes, and other side effects during the study period.
An open label, six week pilot study to examiner the regenerative effect of GC-100 was performed on 15 women with mild to moderate dermatoheliosis as defined by clinical examination. Exclusion criteria selected against patients with a history of retinoic acid use, dermabrasion, or chemical peel application within 6 months prior to study onset. However, all patients had used one or more of these products previously. After appropriate informed consent was obtained, baseline measurements of epidermal thickness using high frequency untrasonography (20 MHz and above) were collected using skin at the infraorbital prominence. Three measurements were taken at each site and averaged to yield a result. GC-100 was applied to the face and neck according to the following schedule: • Weekly: GC-100 applied in mask vehicle • Twice daily: GC-100 applied through lotion vehicle
The patient population was divided into two groups, where Group I was evaluated after 24 hours of product application, and Group II was evaluated at the conclusion of weeks 2, 4 and 6. A panelist questionnaire was completed during each evaluation session.

A further experiment addresses T1, tyrosinase (Mus musculus, UniProt P11344).
T1 construct: endogenous in cells; host or cells: B16 melanoma cells
T1 sequence (P11344 19-533): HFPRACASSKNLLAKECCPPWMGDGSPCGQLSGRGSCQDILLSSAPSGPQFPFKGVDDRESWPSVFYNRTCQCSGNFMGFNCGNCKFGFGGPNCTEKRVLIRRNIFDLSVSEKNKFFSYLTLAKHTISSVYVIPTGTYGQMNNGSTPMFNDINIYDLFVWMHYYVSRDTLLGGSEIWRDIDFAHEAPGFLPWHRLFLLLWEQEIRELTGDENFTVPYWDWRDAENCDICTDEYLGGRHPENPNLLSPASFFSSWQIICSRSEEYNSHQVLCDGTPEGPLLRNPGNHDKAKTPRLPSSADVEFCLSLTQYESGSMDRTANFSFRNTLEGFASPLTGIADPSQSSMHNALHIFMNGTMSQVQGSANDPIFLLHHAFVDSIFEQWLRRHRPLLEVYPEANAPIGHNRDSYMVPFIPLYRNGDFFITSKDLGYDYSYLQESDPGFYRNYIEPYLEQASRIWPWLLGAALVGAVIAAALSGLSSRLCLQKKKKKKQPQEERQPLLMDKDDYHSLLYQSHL
Briefly: Tyrosinase activity in B16 melanoma cells. The format is cell-based. As to the method: This Example establishes and quantifies the effect of GC-100 on tyrosinase synthesis in B16 melanoma cells.
It has been reported that tyrosinase in synthesized in B16 melanoma cells within 24 hours of plating. On the basis of these reports, B16 melanoma cells were used to evaluate the inhibitory effects of GC-100 on tyrosinase synthesis. As an indication of tyrosinase synthesis, tyrosinase activity in B16 melanoma cells was measured in addition to the amount of melanin synthesized per cell.
B16 melanoma cells (5.0′×10^4) were incubated in a 96-well microplate supplemented with DMEM and 5% fetal calf serum at 37° C. for 24 hours. Incubation was continued for an additional 24 hours at 37° C. in DMEM supplemented with GC-100 at either 250 μg/mL, 500 μg/mL, or 1000 μg/mL. After washing cells with PBS twice, the cells were lysed with 50 μL of phosphate buffer (0.05 mM, pH 6.8) containing 0.1% Triton-X, and incubated at 37° C. for 30 minutes. Then 100 μL of phosphate buffer (0.1 mM, pH 6.8) containing 0.1% DOPA was added to the lysate and incubated at 37° C. for 3 hours. The resultant melanin content and protein content of the lysate were then quantified.
GC-100 selected for examination was quantitatively evaluated regarding its inhibitory activity of melanogenesis in B16 melanoma cells. B16 melanoma cells were seeded into a 60 mm diameter dish at density of 1.5′×10^5 cells/dish and incubated at 37° C. in DMEM supplemented with 10% FCS and 40 mM sodium lactate. After 4 days, the medium was exchanged to DMEM supplemented with 5% FCS and the aforementioned concentrations of GC-100 and cultured at 37° C. The results are shown in Table 5 and FIG. 11, which is a graph showing tyrosinase activity as a function of GC-100 concentration.

The subject of experiment [3] is collagen I and collagen III. Briefly: Collagen deposition by light and electron microscopy. Particulars: 20,000×; vs untreated control. As to the method: Skin tissue treated with GC-100 in the absence of ascorbic acid was prepared to illustrate collagen deposition. Tissue samples were first pretreated with Bouin's solution to intensify subsequent staining results. Samples were then treated with Mason's trichrome stain, which combines the plasma stain (chromotrope 2R) and connective tissue fiber stain)aniline blue) in a phosphotungstic acid solution to which glacial acetic acid was added. The collagen absorbs the tungsten ion, which may be visualized due to the complexed aniline blue.
Staining for specific collagen types was achieved using specific standardized indirect immunoperoxidase attains for collagen I and III, respectively.
Collagen deposition assessments are based on the visual interpretation of two endpoints: Collagen I and Collagen III. An untreated control and a tissue sample treated with GC-100 were stained to reveal collagen I. A similar method of comparison was used to illustrate collagen III deposition in control and treated tissue.
Tissues used for light microscopy were place in Karnovsky's fixative for additional evaluation using electron microscopy standard technique. Magnification power of 20,000× was used for visualization of the lower dermis.

The mark [4] stands for this setting: Group I, evaluated after 24 hours of product application.
The mark [5] stands for this setting: Group II, evaluated at weeks 2, 4 and 6.

Take H-Lys-Pro-NH2 [GC-100]: in experiment [1] (free flap full-thickness skin graft model, skin overlying a muscle belly), the “acceleration of generalized healing” value is 50%. Also, the “physical examination of treated flap skin” value in experiment [1] (superior half of flap treated three times over 9 days from postoperative day 14) is “noticeably thicker, smoother and less erythematous”. For the same substance, the “proline incorporation relative to Retin-A (retinoic acid) 0.025%” value in experiment [2] is recorded as “more than twice”. Further, the results for the “Mean % (change in epidermal thickness)” value in the experiment with photodamaged human skin (setting [4]) and with photodamaged human skin (setting [5]) were 8.5% and 7.95%, respectively. The “% change (epidermal thickness, ultrasound)” value is 3.4-19.2% with photodamaged human skin (setting [4]) and 2.9-14% in the experiment with photodamaged human skin (setting [5]). Moreover, the “stratum corneum compaction spongiosis, granular cell layer thickness and epidermal thickness vs baseline” value in the experiment on photodamaged human skin (both treatment groups, high frequency ultrasound) is given as “significant increase over baseline”. In the experiment with photodamaged human skin (six weeks after application), the “average increase in epidermal thickness” value was found to be 8%. For the same substance, the “Tyrosinase activity (% of untreated control)” value on tyrosinase (GC-100 250 μg/mL) is recorded as 57.3 ± 12%; on tyrosinase (GC-100 500 μg/mL), 34.1 ± 14%; on tyrosinase (GC-100 1000 μg/mL) it was 6.6 ± 14.8%. The “collagen fibers in lower dermis, electron microscopy” value in experiment [3] was “collagen fiber density is increased”.

The values are drawn from patent US11793746B2, “Intense skin hydration systems and methods” (priority 2020, dated 2023).
